# Literature values as cited in patent publication US20090012010A1, “Amino acid derivatives as calcium channel blockers” (Neuromed Phramaceuticals Ltd., priority 2007, published 2009).
# Tested on: T-type calcium channels
smiles,measurement,value
COCC(=O)O[C@]1(CCN(C)CCCc2nc3ccccc3[nH]2)CCc2cc(F)ccc2[C@@H]1C(C)C [Mibefradil],fold selective for T-type over L-type channels,10-30 fold
